For one data set, the system named is K. pneumoniae 700603. The data set is classed as cell-based. The note with it: 700603, 18 h. On the procedure: (§1) The antibacterial activities of each peptide were determined against various Gram-negative and Gram-positive bacteria using minimum inhibitory concentration (MIC) assays. The MIC is defined as the lowest concentration of peptide that prevents growth of bacteria using the optical density at 600 nm under standard growth conditions.
(§2) Bacteria were streaked from frozen stocks onto Difco LB-miller agar (BD, Franklin Lakes, NJ, USA) plates (E. coli MG1655 ATCC 47076, E. coli D31 [34], S. aureus ATCC25923, P. aeruginosa ATCC10145, K. pneumoniae 700603). Streaked plates were grown overnight at 37 °C and subsequently stored at 4 °C.
(§3) To prepare overnight cultures, a single colony of each bacterial strain was added to LB broth (Difco) in sterile culture tubes. Tubes were placed in the shaking incubator at 37 °C overnight to allow for sufficient bacterial growth. After incubation, dilutions of the overnight culture were made in LB (1:100) or Muller-Hinton broth (Criterion) (1:250) for MIC assay protocols (Hardy Diagnostics, Santa Maria, CA, USA).
(§4) Minimal inhibitory concentrations (MIC) were determined for each peptide The MIC assay was set up by adding 10 µL of the peptide stock solutions to wells of a sterile 96-well plate to which […] of diluted bacterial culture was added. The final bacterial load was ~5.0 × 10^5 cfu/mL as calculated from the Optical Density^@ 600 nm (OD600) measurements of a log-phase culture. The assay plate was incubated at 37 °C for 18 h. Bacterial growth was assayed by absorbance at OD600 using Multiskan microplate reader (Thermo Fisher, Waltham, MA, USA). […] All MIC values are averages of at least triplicate samples.

In a further data set the test system is S. aureus ATCC25923. The data set is classed as cell-based. The note with it: ATCC25923, 18 h. As to the method: as §1, §2, §3, §4
In a further data set the test system is P. aeruginosa ATCC10145. The data set is classed as cell-based. The note with it: ATCC10145, 18 h. On the procedure:
as §1, §2, §3, §4

The test system of a further data set is E. coli. The data set is classed as cell-based. The conditions noted are these: 18 h. On the procedure:
as §1, §2, §3, §4

Another data set deals with HEK-293 cells. The experiment in a line: Mammalian cell viability, MTT assay. The class given is cell-based, Human. The conditions noted are these: HEK-293, MTT, 24 h, 37 °C, triplicate. As to the method:
The cells were treated with five different concentrations of each peptide ranging from 0.0015 µM to 15 µM for a total of 24 h before viability measurements were performed.
Figure 6 Mammalian cell viability assay—Effects of AP3 peptides on HEK-293 cell viability assayed by MTT metabolic breakdown. A standard density of HEK-293 cells was incubated with serially diluted peptides for 24 h at 37 °C before the assay was performed. Percent viability was normalized to MTT breakdown observed in untreated controls. Color coding of the graph is AP3 (red), AP3K (blue), APX (purple), APX-17 (black), and APX-12 (green). All data represent the average of at least three replicates and error bars represent the standard deviation.
Cellular toxicity of specific peptides was determined by MTT ((3-(4,5-Dimethylthiazol-2-yl)-2,5-Diphenyltetrazolium Bromide)) assay. Human embryonic kidney (HEK) 293 cells with a lenti-CRE luciferase reporter gene were seeded in 96-well plates at a density of 1.5 × 10^4 cells per well and incubated with 5% CO2 at 37 °C for 24 h. Then, cells were treated with appropriate concentrations of peptides (0.0015–15 µM) and control for 24 h. After treatment for 24 h, 10 µL of MTT solution (5 mg MTT/mL PBS) was added to all wells and incubated for 4 h. Then, DMSO was added as a solubilizing agent and the absorbance was recorded at 540 nm. Each peptide concentration was performed in triplicate.
On the technique in general: Formazan colour is commonly taken as a measure of viable cells.

No end group written: not given here.

For GWKTLLKKAEVKTVGKLALKHYL-NH2 [AP3K], the minimum inhibitory concentration (MIC) is more than 9.30 µM against K. pneumoniae 700603, 2.32 µM in the data set with S. aureus ATCC25923, 0.29 µM with P. aeruginosa ATCC10145 and 9.3 µM with E. coli. Also, the “cytotoxicity, dead cells” value is ~ 18% in the data set with HEK-293 cells (1.5 µM peptide) and ~ 40% with HEK-293 cells (15 µM peptide).

With GWRTLLKKAEVKTVGKLALKHYL-NH2 [AP3], the minimal inhibitory concentration (MIC) with K. pneumoniae 700603 was 4.15 µM; in the data set with S. aureus ATCC25923, 4.15 µM; against E. coli, 8.3 µM. For the same substance, the “cytotoxicity, dead cells” value in the data set with HEK-293 cells (1.5 µM peptide) is ~ 18%.

As to GYRTLLKKAEVKTVGKLALKHWL-NH2 [APX], the minimum inhibitory concentration (MIC) in the data set on K. pneumoniae 700603 was more than 15.0 µM; with S. aureus ATCC25923, 15 µM; with P. aeruginosa ATCC10145 it was 15 µM; against E. coli it was more than 15.0 µM.

Turning to KKAEVKTVGKLALKHWL-NH2 [APX-17], the MIC against K. pneumoniae 700603, in the data set on S. aureus ATCC25923, with P. aeruginosa ATCC10145 and with E. coli was more than 8.00 µM each time.

As to KTVGKLALKHWL-NH2 [APX-12], the MIC with K. pneumoniae 700603, with S. aureus ATCC25923, with P. aeruginosa ATCC10145 and in the data set on E. coli was more than 15.0 µM throughout.

The MIC is the least concentration at which growth counts as inhibited. A high value points to a less susceptible organism.

The values are drawn from paper PMC6466588, “Characterization and Antimicrobial Activity of Amphiphilic Peptide AP3 and Derivative Sequences” (Antibiotics, 2019).
